In the supplement of paper PMC11451515:

Assays:
Settings in all cases: 48 h
P12-Ichikawa [1] = experiment: AUC of viability dose-response curve (% viability x log10 dose units); higher = less sensitive
Procedure, shortened: (§1)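 Leukemia cells adapted to each medium were seeded at 500 or 1000 cells/well in 1536-well plates and dosed with library compounds in DMSO at 11 threefold doses from 47 μM to 0.79 nM for 48 h at 37°C. CellTiter-Glo One luminescence was normalised per plate to DMSO and cell-free wells, then fitted with a four-parameter log-logistic model over log10 doses. Area under the curve was taken from this fit by the trapezoidal rule, with curves above full viability scaled and curves failing quality control removed.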

SEM cells [2] = experiment: as above
Procedure, shortened: as §1

NOMO1 [3] = experiment: as above
Procedure, shortened: as §1

P12-Ichikawa [4] = experiment: cell viability relative to DMSO control; higher = less cytotoxic
Procedure, shortened: (§2)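 NOMO1, SEM and P12-Ichikawa leukemia cells spent at least four passages adapting to each medium before use. They were seeded at 500 cells/well (NOMO1, SEM) or 1000 cells/well (P12-Ichikawa) in 5 μl in 1536-well plates and pin-dosed with library compounds in DMSO at 11 threefold steps from 47 μM down to 0.79 nM. After 48 h at 37°C, CellTiter-Glo One luminescence was read. Viability is reported as a percentage of the DMSO wells on each plate, with cell-free wells as background.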

SEM cells [5] = experiment: as above
Procedure, shortened: as §2

NOMO1 [6] = experiment: as above
Procedure, shortened: as §2

O=C(O)c1cccnc1Nc1cccc(C(F)(F)F)c1
AUC of viability dose-response curve
Settings | NOMO1 [3] | P12-Ichikawa [1] | SEM cells [2]
HPLM + 10% dialyzed FBS | 446 | 451 | 466
RPMI 5 mM glucose + 10% FBS | 452 | 451 | 420
RPMI 5 mM glucose + 10% dialyzed FBS | 461 | 444 | 436

cell viability [%]
Settings | NOMO1 [6] | P12-Ichikawa [4] | SEM cells [5]
HPLM + 10% dialyzed FBS, 0.000781 µM | 112 | 112 | 92.1
HPLM + 10% dialyzed FBS, 0.00234 µM | 124 | 111 | 105
HPLM + 10% dialyzed FBS, 0.00702 µM | 129 | 111 | 99.1
HPLM + 10% dialyzed FBS, 0.0211 µM | 104 | 118 | 103
HPLM + 10% dialyzed FBS, 0.0632 µM | 122 | 119 | 119
HPLM + 10% dialyzed FBS, 0.19 µM | 131 | 128 | 117
HPLM + 10% dialyzed FBS, 0.569 µM | 150 | 112 | 40.9
HPLM + 10% dialyzed FBS, 1.71 µM | 142 | 131 | 65.2
HPLM + 10% dialyzed FBS, 5.12 µM | 132 | 129 | 117
HPLM + 10% dialyzed FBS, 15.4 µM | 129 | 129 | 120
HPLM + 10% dialyzed FBS, 46.1 µM | 135 | 124 | 111
RPMI 5 mM glucose + 10% FBS, 0.000781 µM | 105 | 115 | 102
RPMI 5 mM glucose + 10% FBS, 0.00234 µM | 116 | 117 | 97.1
RPMI 5 mM glucose + 10% FBS, 0.00702 µM | 108 | 113 | 90.9
RPMI 5 mM glucose + 10% FBS, 0.0211 µM | 116 | 120 | 106
RPMI 5 mM glucose + 10% FBS, 0.0632 µM | 110 | 124 | 108
RPMI 5 mM glucose + 10% FBS, 0.19 µM | 128 | 143 | 111
RPMI 5 mM glucose + 10% FBS, 0.569 µM | 124 | 129 | 65.9
RPMI 5 mM glucose + 10% FBS, 1.71 µM | 122 | 132 | 55.2
RPMI 5 mM glucose + 10% FBS, 5.12 µM | 125 | 141 | 98.5
RPMI 5 mM glucose + 10% FBS, 15.4 µM | 132 | 138 | 80.6
RPMI 5 mM glucose + 10% FBS, 46.1 µM | 120 | 108 | 75.6
RPMI 5 mM glucose + 10% dialyzed FBS, 0.000781 µM | 97.1 | 104 | 105
RPMI 5 mM glucose + 10% dialyzed FBS, 0.00234 µM | 101 | 108 | 133
RPMI 5 mM glucose + 10% dialyzed FBS, 0.00702 µM | 101 | 115 | 110
RPMI 5 mM glucose + 10% dialyzed FBS, 0.0211 µM | 114 | 112 | 106
RPMI 5 mM glucose + 10% dialyzed FBS, 0.0632 µM | 114 | 112 | 119
RPMI 5 mM glucose + 10% dialyzed FBS, 0.19 µM | 117 | 119 | 125
RPMI 5 mM glucose + 10% dialyzed FBS, 0.569 µM | 120 | 115 | 59.5
RPMI 5 mM glucose + 10% dialyzed FBS, 1.71 µM | 111 | 113 | 54.7
RPMI 5 mM glucose + 10% dialyzed FBS, 5.12 µM | 115 | 121 | 121
RPMI 5 mM glucose + 10% dialyzed FBS, 15.4 µM | 120 | 131 | 108
RPMI 5 mM glucose + 10% dialyzed FBS, 46.1 µM | 106 | 117 | 107
